Measured values published in ChEMBL document CHEMBL1124596, “Introduction of a putative dopaminergic prodrug moiety into a 6,7-substitution pattern characteristic of certain 2-aminotetralin dopaminergic agonists” (1989).

The compounds below were run on Felis catus (assay: Inhibition of cat cardiac response to cardioaccelerator nerve stimulation, when administered intravenously). Details: iv, read-out: ID50 (the source's name).
Type: functional

Point of comparison: `CN1CCc2cccc3c2[C@H]1Cc1ccc(O)c(O)c1-3` [APOMORPHINE], ED50 0.035 µmol/kg. Against it:
- CCCN(CCC)C1CCc2cc(C)c(O)cc2C1 (centres undefined) — higher, 0.54 µmol/kg
- CCCN(CCC)C1CCc2cc(O)c(C)cc2C1 (centres undefined) — higher, 1.75 µmol/kg
- CCCN(CCC)C1CCc2c(ccc(C)c2O)C1 (centres undefined) — higher, 0.25 µmol/kg
